Measured values as given in PMC8677648, “A robotic pill for oral delivery of biotherapeutics: safety, tolerability, and performance in healthy subjects” (Drug Delivery and Translational Research, 2021).

Legend:
[1] = Study 1: pharmacokinetics of octreotide delivered via RP or IV injection (plasma LC/MS/MS); conditions: human, in vivo, 100 ug
Description: This was a single-center, open-label study.
Fluoroscopic imaging was performed with Siemens AXIOM Artis dMP using standard abdominal protocol.
Serial blood samples for PK analysis were collected immediately before the injection and at 5, 10, 15, 20, 25, 30, 40, 50, 60, 90, 120, 150, 180, and 240 min after dosing.
Blood samples were collected into potassium-EDTA treated lavender top tubes, plasma was separated via centrifugation and aliquots stored at −80℃ until analyzed. […] The analysis was performed using an API 5000 mass spectrometer from Applied Biosystems.
MS Excel (2016) and GraphPad (Version 8.4.3) were used for data analysis. Categorical data are expressed as counts and percentages, and continuous data as mean ± standard deviation (SD) or standard error (SE), as indicated. PK parameters were calculated using noncompartmental analysis (NCA) implemented within a validated installation of Phoenix® WinNonlin. The Cmax (peak plasma concentration) and Tmax (time to reach Cmax) were obtained graphically from the concentration vs. time profiles. Unpaired t tests were used to determine differences between groups with a p value of 0.05 or less deemed as significant.

[2] = in vivo, cited from earlier work
Description: For example, subjects need to take oral semaglutide at least 30 min before the first food, beverage, or other or ...

Compound | Cmax [1] [ng/mL] | Tmax [1] [min] | bioavailability ([2]; po) | half-life [2] [h]
C[C@@H](O)[C@@H]1NC(=O)[C@H](CCCCN)NC(=O)[C@@H](Cc2c[nH]c3ccccc23)NC(=O)[C@H](Cc2ccccc2)NC(=O)[C@@H](NC(=O)[C@H](N)Cc2ccccc2)CSSC[C@@H](C(=O)N[C@H](CO)[C@@H](C)O)NC1=O [octreotide] | 11.1 | 5 | – | –
semaglutide | – | – | ~ 1% | 170
